Results from US8129532B2, “Amino(oligo)thiophene dyes, preparation thereof, and optical methods of use” (The University of Connecticut, priority 2007, dated 2012).

How the values were obtained:
[1] = One-photon absorption and emission spectra in multilamellar lipid vesicles, water and ethanol; assay type: physicochemical
Excerpt: […] The column indicating relative signal change for one-photon fluorescence also lists the excitation light source used and the lower bounds of the long-pass emission detected.
Absorption and emission spectra were obtained for a series of dyes with different acceptors: pyridinium (PY-1261), quinolinium (PY-212), and acridinium (PY-2240).

[2] = test system: layer V pyramidal neurons; assay: Voltage-sensitive dye imaging of action potentials in intracellularly stained pyramidal neurons in brain slices; assay type: cell-based, Sprague Dawley rats
Excerpt: Sprague Dawley rats (P21-42) were anesthetized with isoflurane, decapitated, and the brains were removed with the head immersed in ice-cold, artificial cerebrospinal fluid (ACSF), according to an animal protocol approved by the Center for Laboratory Animal Care, University of Connecticut. Brain slices (300 μm) were cut from frontal lobes in the coronal plane. ACSF contained (in mM) 125 NaCl, 26 NaHCO3, 10 glucose, 2.3 KCl, 1.26 KH2PO4, 2 CaCl2 and 1 MgSO4, pH 7.4. Whole-cell recordings were made from visually identified layer V pyramidal neurons on the medial part of the slice. Intracellular solution contained (in mM) 135 K-gluconate, 2 MgCl2, 3 Na2-ATP, 10 Na2-phosphocreatine, 0.3 Na2-GTP and 10 Hepes (pH 7.3, adjusted with KOH). Electrical signals were amplified with Multiclamp 700A and digitized with two input boards: (1) Digidata Series 1322A (Axon Instruments) at 5 kHz, and (2) Neuroplex (RedShirtImaging) at 2.7 kHz sampling rate. Only cells with a membrane potential more hyperpolarized than −50 mV, and action potential amplitudes exceeding 80 mV (measured from the base line) were included in this study. All experiments were performed on layer 5 cortical pyramidal cells at 34° C.
Blue dyes were stored in ethanol stock solution at −20° C. On the day of the recording blue dyes were dissolved in standard K-gluconate based intracellular solution. A loading pipette was filled with two varieties of the same intracellular solution; one with and one without dye. Dye-free solution was occupying the very tip of the pipette, while the back of the pipette lumen was microloaded with dye-rich solution. The purpose of dye-free solution in the tip of the patch pipette was to prevent dye-leak during the maneuver through brain slice tissue. VSD styryl dyes are lipophilic and bind indiscriminately and irreversibly to all membranes around the neuron of interest. Even a small amount of dye that leaks out of the pipette during the formation of the gigaohm seal, can generate strong fluorescent background. Fluorescent light emanating from surrounding tissue has a devastating effect on dendritic optical signals. Elimination of the background fluorescence is critical for dendritic voltage imaging. How much dye-free solution one should put in the tip depends on time period between the submersion of the patch pipette into the recording chamber and formation of the gigaohm seal. The faster one can perform this maneuver the less dye-free solution she needs to achieve optimal staining.
Blue VSD were injected at room temperature for 25-60 minutes. The filling pipette was carefully pulled out (outside-out patch) and brain slices were left to incubate for 20-120 minutes at room temperature. Just before optical recordings the cells were re-patched with dye-free pipette at the physiological temperature (34° C.).
Voltage-sensitive dye imaging was performed on a Zeiss Axioskope 2FS microscope equipped with NeuroCCD camera (RedShirtImaging). We used Zeiss 40× objective IR-Achroplan 0.80 W. The size of the square visual field captured by NeuroCCD camera was 384×384 um. In the place of the arc lamp (normally used for epi-illumination), we inserted a 200 μm fiber optic guide with a collimator. Laser beam was focused on the other side of the fiber optic guide using a microscope objective-like lens. This arrangement produced a motionless spot of laser light (˜25 μm in diameter) at the object plane. An illuminated section of the brain slice, projected onto the NeuroCCD camera, covered approximately 25 pixels when used with 40× objective lens. At this magnification, one pixel sampled a 4.8×4.8 square in the object plane. A region of interest (ROI) was brought into the laser spot using X-Y microscope platform. The laser beam was interrupted by an electro-programmable shutter (Uniblitz®). Attention was made to limit the exposure time during the recording and positioning of the neuron.

[3] = test system: layer V pyramidal neurons; assay: Toxicity / photodynamic damage: AP half-width during optical recording
Excerpt: S. Antic, G. Major, D. Zecevic, “Fast optical recordings of membrane potential changes from dendrites of pyramidal neurons”, Journal of Neurophysiology, 82, 1615-1621 (1999). Accumulation of reactive oxygen species (free radicals), which interact with and damage neuronal plasmalemma, is the most likely mechanism. J. B. Feix, B. Kalyanaraman, “Production of singlet oxygen-derived hydroxyl radical adducts during merocyanine-540-mediated photosensitization: analysis by ESR-spin trapping and HPLC with electrochemical detection”, Archives of Biochemistry & Biophysics, volume 291, pages 43-51 (1991). High intensity illumination during optical recording sessions excites large number of membrane bound dye molecules. Since styryl dyes have tendency to penetrate deep into the lipid bilayers (E. Fluhler, V. G. Burnham, L. M. Loew, “Spectra, membrane binding, and potentiometric responses of new charge shift probes”, Biochemistry, 24, 5749-5755 (1985)), free radicals are produced literally inside the neuronal membrane. […] S. D. Antic, “Action potentials in basal and oblique dendrites of rat neocortical pyramidal neurons”, Journal of Physiology 550, 35-50 (2003). […] Since dye loading was always done at room temperature (21° C.) and re-patching at 34° C., we could not compare AP shape and size before and after dye loading. Therefore, in order to check the extent of dye toxicity we designed a group of experiments in which neurons were injected and incubated at 34° C. During the dye injection (loading phase), in regular time intervals (3-5 min) direct current pulses was used to slowly charge the membrane and trigger an AP (FIG. 14A). Identical current pulse was then applied at the end of dye loading phase, just before the electrode pull-out (FIG. 14B) and after the 50-90 min incubation period (FIG. 14C, re-patch). […] To avoid AP jitter in optical recordings we used shorter and stronger current pulses (FIG. 14D, E, F, insets). However, from time to time we returned to AP-testing current injection protocol (FIG. 14D, E), while keeping the count on the number of cumulative high-intensity light exposures (# sweeps). […] Additional experimental details can be found in Ping Yan, Aifang Xie, Meide Wei, and Leslie M. Loew, “Amino(oligo)thiophene-Based Environmentally Sensitive Biomembrane Chromophores”, Journal of Organic Chemistry, published on web Jul. 30, 2008.

[4] = One-photon fluorescence relative signal change per 100 mV; settings: excitation / long-pass emission (nm) given
Excerpt: The left-most data columns of Table 1 are the absorption and emission maxima for one photon fluorescence in soybean multi-lamellar lipid vesicles used to mimic the membrane environment. The column indicating relative signal change for one-photon fluorescence also lists the excitation light source used and the lower bounds of the long-pass emission detected.

dye-stained cells = assay: Confocal fluorescence intensity and bleaching of dye-stained cells; assay type: cell-based; settings: compared with PY-1261
[5] = compared with unfluorinated PY-1261
[6] = one photon, soybean multi-lamellar lipid vesicles

Absorbance ethanol ([1]; ethanol) | Emission ethanol ([1]; ethanol) | Absorbance MLV ([1]; multilamellar lipid vesicles) | Emission MLV ([1]; multilamellar lipid vesicles) | Absorbance water ([1]; water) | half time for bleaching of dye-stained cells (dye-stained cells) | absorbance extinction coefficient of dye-stained lipid vesicle suspensions [1, 5] | effect of fluorination on spectra [1, 5] | 1PF Abs. Max [1, 6] | 1PF Em. Max [1, 6] | Compound | AP-associated optical signal, single example (base line-to-peak) ([2]; FIG. 11, basal dendrite) | S/N ratio at 532 nm ([2]; laser spot 532 nm) | slope of linear fit, AP half-width versus cumulative sweeps ([3]; FIG. 15A, 15C) | sweeps recorded before AP half-width grew by more than 15% from control ([3]; n=12) | 1PF Change (ΔF/F-100 mv) [4] | intensity of fluorescence of stained cells (dye-stained cells; confocal microscope)
511 nm | 718 nm | 457 nm | 670 nm | 440 nm |  |  |  |  |  | Di-1-ANEPEQ [JPW-3028, reference compound] | 5 % ΔF/F | {at 532 nm = 5.95 ± 2.16} | 0.0027 | 86±28 sweeps |  | 
 |  |  |  |  | increases the half time for bleaching | increases | shifts the spectra to the red | 565 nm | 706 nm | CCN(CC)c1ccc(-c2ccc(/C=C(\F)c3cc[n+](CCC[N+](CC)(CC)CC)cc3)s2)s1 [PY-3008] |  |  |  |  | 1.0E−001; 650/>715 ΔF/F-100 mv | increases
